Measured values reported in PMC10791743, “Selective CK1α degraders exert antiproliferative activity against a broad range of human cancer cell lines” (Nature Communications, 2024).
Several values for one entry are separate records, joined by “and”; a condition that tells them apart may be missing. Equal values may be shown once.

Experiment: Plasma stability assay, mouse
Assay type: in vitro ADME
Conditions: for Calculated Concentration: 0h standards set to Actual Concentration 100, IS warfarin, replicates
Procedure: page 32: Aldrich, Saint Louis, MO) were diluted into 0.1 M potassium phosphate buffer (PBS, pH 7.4, KH2PO4, Cat. No: P284-500; K2HPO4, Cat. No: BP363-500, Fisher Scientific, Fair Lawn, NJ) and mixed well. 40 μL of this solution was transferred into the above compounds plates. For the time 0 plate, 3 fold (v:v) cold acetonitrile with warfarin (400 ng/mL) as the internal standard was added to […] and B in PBS, pH 7.4) and no incubation. For the other five time points’ plates, 10 μL NADPH regenerating agent mixer was added to each well to initiate the reaction, the plate was sealed and incubated at 37° C on an orbital shaker (100 rpm) for the required time, followed by quenching of the reaction by adding 3-fold volume of cold acetonitrile with internal standard to each well. The final concentration of each component applied in this reaction was liver microsome protein at 0.5 […] After quenching, all plates were securely sealed and thoroughly mixed at 600 rpm for 10 minutes. Subsequently, centrifugation was performed at 4000 rpm for 20 minutes. The resulting supernatants […] analysis using UPLC–MS/MS. The assessment of metabolic stability involved determining the half- life through a least-squares fit of multiple time points, employing first-order kinetics. Plasma stability assay5: The degradation of human or mouse plasma was assessed by monitoring the gradual reduction of the parent compound over specified time intervals (0, 3, 24, and 48 hours). Human and mouse plasma samples were sourced from GeneTex (Irvine, CA). Test compound stock solutions, prepared at 10 mM in DMSO, were dispensed into triplicate wells of a 96-well microplate using the Labcyte Echo 650 dispenser. For plates, excluding the time 0-hour plate, plasma was […] The plate was sealed, incubated at 37°C on an orbital shaker (100 rpm) for the required duration, and then quenched with cold acetonitrile, incorporating warfarin as the internal standard. In the case of the time 0-hour plate, cold acetonitrile with the internal standard was added to each well before introducing plasma, eliminating page 33: the need for further incubation. Following quenching, all plates were thoroughly mixed at 600 rpm for 10 minutes and centrifuged at 4000 rpm for 20 minutes. Supernatants were transferred to […] MS/MS analysis. Plasma stability was evaluated by determining the half-life through a least-squares fit of multiple time points based on first-order kinetics. Plasma protein binding assay: Test compound stock solutions were prepared at a concentration of 10 mM in DMSO. A Single-Use RED (Rapid Equilibrium Dialysis) device was acquired from Thermo Scientific (Cat. No: 99006, Rockford, IL). The sample preparation for plasma protein binding followed a modified version of Waters' method6. After thawing, plasma was centrifuged at 1000 rpm for 10 minutes to eliminate any particulates. Each compound was then prepared at a concentration of 10 µM in either human or mouse plasma. In the plasma protein binding assessment, 300 µL of spiked plasma solutions were introduced into the sample chamber (indicated by the red ring), while 550 µL of DPBS was added to the adjacent chamber. The plate was sealed and incubated at 37°C on an orbital shaker (100 rpm) for 4 hours. Post -incubation, 50 µL aliquots were withdrawn from each side of the insert and dispensed into a 96 -well storage plate. To create analytically identical sample matrices (matrix matching), an equivalent volume of blank plasma or DPBS was added to the necessary wells, followed by quenching w ith 3-fold (v:v) cold acetonitrile containing warfarin as the internal standard. Subsequently, the sealed plates were well -mixed at 600 rpm for 10 minutes and then centrifuged at 4000 rpm for 20 minutes. Supernatants were transferred to analytical […] Test compound concentrations were quantified in both the buffer and plasma chambers by determining peak areas relative to the internal standard. […]

[1] = mouse plasma, regression of log concentration over time points 0, 3, 24, 48 h

Compound	Plasma stability (mouse) [h]	Calculated Concentration (mouse plasma, time point 3h)	Calculated Concentration (mouse plasma, time point 24h)	Calculated Concentration (mouse plasma, time point 48h)	Ke [1]	t(1/2) [1]
O=C1CCC(N2Cc3cc(Nc4noc5ccccc45)ccc3C2=O)C(=O)N1 (stereo not drawn) [SJ3149]	> 10					
O=C1CCC(N2Cc3cc(Nc4noc5ccccc45)ccc3C2=O)C(=O)N1 (stereo not drawn) [SJ001043149-1]		89.527 and 94.878 and 96.383	48.667 and 48.995 and 51.103	26.458 and 25.987 and 26.969	0.028	24.7479
